Read-outs that look alike come from different tables or passages of the source.
Legend:
[1] = tested on: pancreatic cancer with distant metastases; conditions: pancreatic tumors with distant metastases; cited from earlier work
EGFR and erbB2 kinases = conditions: Rusnak et al., 2001b; Xia et al., 2002; cited from earlier work
[2] = tested on: locally advanced or metastatic TCC of the bladder
solid tumors = conditions: for time remained on lapatinib, SD patient: progressing on previous therapy
[3] = tested on: H16 N2 (Transfected erbB2); assay: Cell growth inhibition IC50, H16 N2; conditions: read-out: Growth Inhibition (IC50 μM)
Procedure: (§1) The human bladder cell lines, HT-1197, HT-1376 and T24, and the ovarian cell line, SKOV3, were obtained from the American Type Culture Collection. The cells were maintained in tissue culture flasks in RPMI 1640 (Invitrogen # 22400-089) with 10% fetal bovine serum (FBS, HyClone # SH30071.03) and were incubated at 37° Celsius in an atmosphere of 5% CO2, until plating for IC50 determination. For IC50 determination, cells were plated in the appropriate medium at 5,000 cells per well in a 96-well tissue culture dish and returned to the incubator overnight. […] Final concentrations ranged from 30 micromolar to 0.00152 micromolar. After three days of compound exposure, the growth medium was removed by aspiration. Cell biomass was estimated by staining cells in 0.1 ml per well of methylene blue (Sigma #M9140, 0.5% in 50:50, ethanol:water), followed by incubation at room temperature for at least 30 minutes. Stain was aspirated and the plates rinsed by immersion in deionized water, followed by air drying. Stain was released from cells by the addition of 0.1 ml of solubilization solution (1.0% N-lauryl sarcosine, Sodium salt, Sigma #L5121 in PBS). Plates were incubated at room temperature for 40 minutes. Absorbance was read at 620 nm in a Tecan Spectra micro-plate reader. Percent inhibition of cell growth was calculated relative to untreated control wells. […]

CaLu3 = assay: Cell growth inhibition IC50, CaLu3; conditions: Homo sapiens, Calu-3, read-out: Growth Inhibition (IC50 μM)
Procedure: as §1

Colo 205 = assay: Cell growth inhibition IC50, Colo 205; conditions: Homo sapiens, COLO 205, read-out: Growth Inhibition (IC50 μM)
A427 = assay: Cell growth inhibition IC50, A427; type: cell-based; conditions: Homo sapiens, A-427, Lung Carcinoma
Procedure: as §1

NCI-H358 = assay: Cell growth inhibition IC50, NCI-H358; conditions: Homo sapiens, NCI-H358, read-out: Growth Inhibition (IC50 μM)
Procedure: (§2) The cells were maintained in tissue culture flasks in RPMI 1640 (Invitrogen # 22400-089) with 10% fetal bovine serum (FBS, HyClone # SH30071.03) and were incubated at 37° Celsius in an atmosphere of 5% CO2, until plating for IC50 determination. For IC50 determination, cells were plated in the appropriate medium at 5,000 cells per well in a 96-well tissue culture dish and returned to the incubator overnight. […] Final concentrations ranged from 30 micromolar to 0.00152 micromolar. After three days of compound exposure, the growth medium was removed by aspiration. Cell biomass was estimated by staining cells in 0.1 ml per well of methylene blue (Sigma #M9140, 0.5% in 50:50, ethanol:water), followed by incubation at room temperature for at least 30 minutes. Stain was aspirated and the plates rinsed by immersion in deionized water, followed by air drying. Stain was released from cells by the addition of 0.1 ml of solubilization solution (1.0% N-lauryl sarcosine, Sodium salt, Sigma #L5121 in PBS). Plates were incubated at room temperature for 40 minutes. Absorbance was read at 620 nm in a Tecan Spectra micro-plate reader. Percent inhibition of cell growth was calculated relative to untreated control wells. IC50 values were interpolated using the method of Levenberg and Marquardt (Mager, 1972) and the equation: y=Vmax*[1−(x^n/(K^n+x^n))], where “K” is equal to IC50. […]

SW620 = assay: Cell growth inhibition IC50, SW620; conditions: Homo sapiens, SW-620, read-out: Growth Inhibition (IC50 μM)
T24 = assay: Cell growth inhibition IC50 (methylene blue), T24; conditions: Homo sapiens, T-24, 72 h, read-out: Growth Inhibition (IC50 μM)
Procedure: as §1

PC3 = assay: Cell growth inhibition IC50, PC3; conditions: Homo sapiens, PC-3, read-out: Growth Inhibition (IC50 μM)
Procedure: as §1

H1197 = assay: Cell growth inhibition IC50 (methylene blue), H1197; conditions: Homo sapiens, 72 h, read-out: Growth Inhibition (IC50 μM)
Procedure: The cells were maintained in tissue culture flasks in RPMI 1640 (Invitrogen # 22400-089) with 10% fetal bovine serum (FBS, HyClone # SH30071.03) and were incubated at 37° Celsius in an atmosphere of 5% CO2, until plating for IC50 determination. For IC50 determination, cells were plated in the appropriate medium at 5,000 cells per well in a 96-well tissue culture dish and returned to the incubator overnight. […] Final concentrations ranged from 30 micromolar to 0.00152 micromolar. After three days of compound exposure, the growth medium was removed by aspiration. Cell biomass was estimated by staining cells in 0.1 ml per well of methylene blue (Sigma #M9140, 0.5% in 50:50, ethanol:water), followed by incubation at room temperature for at least 30 minutes. Stain was aspirated and the plates rinsed by immersion in deionized water, followed by air drying. Stain was released from cells by the addition of 0.1 ml of solubilization solution (1.0% N-lauryl sarcosine, Sodium salt, Sigma #L5121 in PBS). Plates were incubated at room temperature for 40 minutes. Absorbance was read at 620 nm in a Tecan Spectra micro-plate reader. Percent inhibition of cell growth was calculated relative to untreated control wells. IC50 values were interpolated using the method of Levenberg and Marquardt (Mager, 1972) and the equation: y=Vmax*[1−(x^n/(K^n+x^n))], where “K” is equal to IC50.

RKO = assay: Cell growth inhibition IC50, RKO; type: cell-based; conditions: Homo sapiens, Colorectal carcinoma
Procedure: as §2

H1376 = assay: Cell growth inhibition IC50 (methylene blue), H1376; conditions: Homo sapiens, 72 h, read-out: Growth Inhibition (IC50 μM)
Procedure: as §1

HFF = assay: Cell growth inhibition IC50, HFF; conditions: Homo sapiens, read-out: Growth Inhibition (IC50 μM)
Procedure: as §1

Calu1 = assay: Cell growth inhibition IC50, Calu1; conditions: Homo sapiens, Calu-1, read-out: Growth Inhibition (IC50 μM)
Procedure: as §2

DLD-1 = assay: Cell growth inhibition IC50, DLD-1; conditions: Homo sapiens, DLD-1, read-out: Growth Inhibition (IC50 μM)
Procedure: as §2

SKMEL28 = assay: Cell growth inhibition IC50, SKMEL28; type: cell-based; conditions: Homo sapiens, SK-MEL-28, Melanoma
Procedure: as §2

H157 = assay: Cell growth inhibition IC50, H157; type: cell-based; conditions: Homo sapiens, NCI-H157, Lung carcinoma
Procedure: as §2

NCI-H322 = assay: Cell growth inhibition IC50, NCI-H322; type: cell-based; conditions: NSCLC
Procedure: as §2

HCT 116 = assay: Cell growth inhibition IC50, HCT 116; conditions: Homo sapiens, HCT-116, read-out: Growth Inhibition (IC50 μM)
Procedure: as §2

[4] = tested on: locally advanced or metastatic transitional cell carcinoma of the urothelial tract
Procedure: Safety and efficacy assessments (independent review) were carried out at 4 and 8-week intervals respectively. Patients were also assessed at withdrawal, and followed every 2 months until death.

SKOV3 = assay: Cell growth inhibition IC50 (methylene blue), SKOV3; conditions: Homo sapiens, SK-OV-3, 72 h, read-out: Growth Inhibition (IC50 μM)
Procedure: as §1

SW837 = assay: Cell growth inhibition IC50, SW837; conditions: Homo sapiens, SW837, read-out: Growth Inhibition (IC50 μM)
Lovo = assay: Cell growth inhibition IC50, Lovo; type: cell-based; conditions: Homo sapiens, Colorectal carcinoma
Procedure: as §1

NCI-H2009 = assay: Cell growth inhibition IC50, NCI-H2009; conditions: Homo sapiens, NCI-H2009, read-out: Growth Inhibition (IC50 μM)
Procedure: as §2

NCI-H727 = assay: Cell growth inhibition IC50, NCI-H727; type: cell-based; conditions: Homo sapiens, Lung carcinoid bronchus
Procedure: as §2

A431 = assay: Cell growth inhibition IC50, A431; conditions: Homo sapiens, A-431, read-out: Growth Inhibition (IC50 μM)
Procedure: as §1

BxPC3 = assay: Cell growth inhibition IC50, BxPC3; conditions: Homo sapiens, BXPC-3, read-out: Growth Inhibition (IC50 μM)
Procedure: as §2

NCI-H460 = assay: Cell growth inhibition IC50, NCI-H460; type: cell-based; conditions: Homo sapiens, Lung Carcinoma
Procedure: as §1

LNCaP = assay: Cell growth inhibition IC50, LNCaP; conditions: Homo sapiens, read-out: Growth Inhibition (IC50 μM)
Procedure: as §1

LS174T = assay: Cell growth inhibition IC50, LS174T; type: cell-based; conditions: Homo sapiens, Colon adenocarcinoma
Procedure: as §2

A549 = assay: Cell growth inhibition IC50, A549; conditions: Homo sapiens, A549, read-out: Growth Inhibition (IC50 μM)
Procedure: as §1

HT29 = assay: Cell growth inhibition IC50, HT29; conditions: Homo sapiens, HT-29, read-out: Growth Inhibition (IC50 μM)
NCI-H747 = assay: Cell growth inhibition IC50, NCI-H747; conditions: Homo sapiens, NCI-H747, read-out: Growth Inhibition (IC50 μM)
Procedure: as §2

SW480 = assay: Cell growth inhibition IC50, SW480; conditions: Homo sapiens, SW480, read-out: Growth Inhibition (IC50 μM)
Procedure: as §1

786O = assay: Cell growth inhibition IC50, 786O; conditions: Homo sapiens, 786-0, read-out: Growth Inhibition (IC50 μM)
Procedure: as §1

HMEC = assay: Cell growth inhibition IC50, HMEC; conditions: Homo sapiens, read-out: Growth Inhibition (IC50 μM)
Procedure: as §2

[5] = 1250 mg daily oral, 59 patients, investigator reported
[6] = Head and Neck, 9 patients, only patients receiving lapatinib more than 4 months
[7] = QD administration, heavily pre-treated population
[8] = 1250 mg once daily, interim analysis of 30 patients

In the case of O=c1[nH]cc(F)c(=O)[nH]1 [FU, fluorouracil], the “clinical benefit response (cancer-related symptoms)” value [1] is listed as 4.8% and the overall survival [1] is listed as 4.4 months.
In the case of CS(=O)(=O)CCNCc1ccc(-c2ccc3ncnc(Nc4ccc(OCc5cccc(F)c5)c(Cl)c4)c3c2)o1 [GW572016, N-{3-chloro-4-[(3-fluorobenzyl)oxy]phenyl}-6-[5-({[2-(methanesulphonyl)ethyl]amino}methyl)-2-furyl]-4-quinazolinamine], the “kinase inhibition in human xenograft studies” value (EGFR and erbB2 kinases) is listed as “dose-dependent kinase inhibition”.
With CS(=O)(=O)CCNCc1ccc(-c2ccc3ncnc(Nc4ccc(OCc5cccc(F)c5)c(Cl)c4)c3c2)o1.Cc1ccc(S(=O)(=O)O)cc1 [GW572016F, N-{3-Chloro-4-[(3-fluorobenzyl)oxy]phenyl}-6-[5-({[2-(methanesulphonyl)ethyl]amino}methyl)-2-furyl]-4-quinazolinamine ditosylate monohydrate] the “patients with asymptomatic, Grade 2 decrease in cardiac ejection fraction” value ([2]; 1250 mg daily) was “One”, the “tolerability (in words)” value ([2]; 1250 mg daily) was “well-tolerated” and the “PR, independent radiologic review” value ([2]; 1250 mg daily oral, 59 patients, RECIST) was 2%. For the same compound, the “partial responses (PR), investigators” value [2, 5] was 3%, the “stable disease (SD), investigators” value [2, 5] was 20% and the “Grade 3/4 AEs: diarrhea” value ([2]; 1250 mg daily, Grade 3/4) was 3%. For the same compound, the “Grade 3/4 AEs: vomiting” value ([2]; 1250 mg daily, Grade 3/4) was 7%, the “Adverse events: asthenia” value ([2]; 1250 mg daily, all grades) was 12% and the “Adverse events: diarrhea” value ([2]; 1250 mg daily, all grades) was 39%. The “Adverse events: fatigue” value ([2]; 1250 mg daily, all grades) was 10%, the “Adverse events: nausea” value ([2]; 1250 mg daily, all grades) was 27% and the “Adverse events: rash” value ([2]; 1250 mg daily, all grades) was 32%. For the same compound, the “Adverse events: vomiting” value ([2]; 1250 mg daily, all grades) was 22%, the “median TTP” value ([2]; 95% CI 8.00, 11.29) was 8.6 weeks and the median overall survival ([2]; 95% CI 13.14, 30.29) was 17.9 weeks. The “clinical benefit (CR+PR+SD≧16 weeks), independent review” value ([2]; assessed by independent review) was 12%, the “clinical benefit (CR+PR+SD≧16 weeks), investigator” value ([2]; assessed by investigator) was 14% and the patients with cytoreduction ([2]; at week 8) was 10 patients. For the same compound, the patients with cytostasis ([2]; at week 8) was 4 patients, the “patients with tumor growth up to 20%” value ([2]; at week 8) was 10 patients and the “patients with durable SD lasting 6 months” value ([2]; independent review) was “three”. The “patients with durable SD lasting 4 months” value ([2]; investigator review) was “six”, the “time on study of one patient who remains on study” value ([2]; one patient) was over 56 weeks and the “activity (in words)” value ([2]; relapsed, advanced or metastatic TCC of the bladder) was “exhibits monotherapy activity”. The “median duration of SD” value (solid tumors; 22 SD pts) was 4 mos, the interstitial pneumonitis (solid tumors; 81 patients treated) was “no cases” and the “time remained on lapatinib, SD patient” value (solid tumors; AUP metastatic to lung) was at least 8 mos. For the same compound, the “Clinical Response, SD (patients)” value (solid tumors; AUP, 6 patients, only patients receiving lapatinib more than 4 months) was “SD = 1”, the “Clinical Response, SD (patients)” value (solid tumors; Breast, 6 patients, only patients receiving lapatinib more than 4 months) was “SD = 2” and the “Clinical Response, SD (patients)” value (solid tumors; Cervical, 2 patients, only patients receiving lapatinib more than 4 months) was “SD = 1”. The “Clinical Response, SD (patients)” value (solid tumors; Colorectal, 27 patients, only patients receiving lapatinib more than 4 months) was “SD = 3”, the “Clinical Response, CR (patients)” value (solid tumors; [6]) was 1 and the “Clinical Response, SD (patients)” value (solid tumors; [6]) was 3. The “Clinical Response, SD (patients)” value (solid tumors; Mesothelioma, 3 patients, only patients receiving lapatinib more than 4 months) was “SD = 1”, the “Clinical Response, SD (patients)” value (solid tumors; NSCLC, 7 patients, only patients receiving lapatinib more than 4 months) was “SD = 3” and the “clinical activity (in words)” value (solid tumors; [7]) was “evidence of clinical activity”. For the same compound, the “tolerability (in words)” value (solid tumors; [7]) was “well tolerated”, the “Clinical Response, SD (patients)” value (solid tumors; Renal, 6 patients, only patients receiving lapatinib more than 4 months) was “SD = 2” and the “duration of CR” value (solid tumors; erbB1 overexpressing head and neck squamous cell carcinoma) was at least 16 mos. For the same compound, the “CR (number of patients)” value (solid tumors; erbB1 overexpressing head and neck squamous cell carcinoma, 81 patients treated) was “One”, the “time remained on lapatinib, SD patient” value (solid tumors; non-small cell lung cancer) was at least 12 mos and the “patients who experienced SD” value (solid tumors; various tumors most overexpressing either erbB1 or erbB2, 81 patients treated) was “Twenty-two”. The IC50 [3] was 0.03 µM, the IC50 (CaLu3) was 0.057 µM and the IC50 (Colo 205) was 7.7 µM. The IC50 (A427) was 5.95 µM, the IC50 (NCI-H358) was 0.27 µM and the IC50 (SW620) was 6.75 µM. The IC50 (T24) was 8.22 µM, the IC50 (PC3) was 7.15 µM and the IC50 (H1197) was 7.78 µM. It also gave an IC50 (RKO) of 5.48 µM, an IC50 (H1376) of 3.34 µM and an IC50 (HFF) of 6.45 µM. For the same compound, the IC50 (Calu1) was 5.51 µM, the IC50 (DLD-1) was 3.63 µM and the IC50 (SKMEL28) was 5.9 µM. It also gave an IC50 (H157) of 5.98 µM, an IC50 (NCI-H322) of 0.92 µM and an IC50 (HCT 116) of 5.87 µM. The “Clinical benefit (≧6 months SD)” value [4, 8] was 10%, the “PR confirmed at 8 weeks (number)” value [4, 8] was “one” and the “patients with progressive disease” value [4, 8] was 17%. The “patients with tumour reduction qualified as partial responses (PR) at the initial assessment” value [4, 8] was 10%, the “activity (in words)” value ([4]; second-line oral treatment) was “promising activity” and the IC50 (SKOV3) was 1.25 µM. The IC50 (SW837) was 4.7 µM, the IC50 (Lovo) was 3.39 µM and the IC50 (NCI-H2009) was 11.5 µM. For the same compound, the IC50 (NCI-H727) was 7.59 µM, the IC50 (A431) was 0.23 µM and the IC50 (BxPC3) was 1.41 µM. It also gave an IC50 (NCI-H460) of 9 µM, an IC50 (LNCaP) of 4.69 µM and an IC50 (LS174T) of 1.51 µM. It also gave an IC50 (A549) of 4.98 µM, an IC50 (HT29) of 5.24 µM and an IC50 (NCI-H747) of 1.49 µM. It also gave an IC50 (SW480) of 6.86 µM, an IC50 (786O) of 1.82 µM and an IC50 (HMEC) of 1.34 µM.
For Nc1ccn([C@@H]2O[C@H](CO)[C@@H](O)C2(F)F)c(=O)n1 [gemcitabine], the “clinical benefit response (cancer-related symptoms)” value [1] is given as 23.8% and the overall survival [1] is given as 5.6 months.
